Here are results for 20 compounds from PMC6309140, “Synthesis and Evaluation of a New Type of Small Molecule Epigenetic Modulator Containing Imidazo[1,2-b][1,2,4]triazole Motif” (Frontiers in Chemistry, 2018).

In one data set the test system is HEK 293 F cells. Briefly: Viability assays (CellTiter-Glo, ATP). The data set is classed as cell-based. The settings on record: viable cells by ATP quantitation, 3 days incubation, Figure 2 says B2-17 cells, method says HEK 293 F cells, read-out: IC50 (relative half maximal growth inhibitory concentration). An excerpt:
(§1) To identify novel small molecules targeting gene repression, we devised an image-based high-throughput screening system using the engineered HEK 293 F cell (termed as B2-17 cells) as report cell line. A chemical library containing 308,251 small molecules was screened in this system. Purposed for unbiased compound screening, this library had been used in a variety of studies (Sun et al., [2012]; Wang et al., [2013]; Dong et al., [2015]; Li et al., [2016]). Hundred and fifty eight compounds which reactivated reporter genes in more than half of cells were selected as hits. Next, we performed titration experiments for all these hits in the B2-17 cell line. The efficacy of each compound was evaluated by its maximal percentage of EGFP^+ cells in the dose-response curve (maximal RGFP) and relative half maximal effect concentration (EC50). The toxicity of the hits was also tested in parallel, measured by number of viable cells in each treatment. The assay is based on quantitative analysis of ATP, an indicator of metabolically active cells. For each compound, we calculated the relative half maximal growth inhibitory concentration (IC50), based on the abovementioned assay.
HEK 293 F cells were plated in 384-well, flat-bottom, tissue culture dishes (Corning) and treated with compounds, incubated 3 days, and assayed for viability using the CellTiter-Glo Luminescent Cell Viability Assay (Promega) according to the manufacturer's protocol. The […] with an EnSight plate reader (Perkin Elmer). Data were normalized to the untreated control (100% viability). Each treatment was tested in two independent assays, each containing 3 replicates. The titration-viability curves of each compound were also generated by using Origin 6.0 Pro software.

A short description of data set [1]: Water solubility (qualitative remark). Conditions: 14b vs. 14a. The data set is classed as physicochemical.
The test system of data set [2] is EGFP reporter gene silenced by DNA methylation (B2-17 cells). Briefly: Compound effective assay: derepression of EGFP reporter in B2-17 reporter cells (image-based, titration). The data set is classed as cell-based. Conditions: for Emax: 72 h, read-out: Maximal RGFP% (maximal percentage of EGFP+ cells in the dose-response curve); for Emax / pEC50 / Maximal RGFP% (maximal percentage of EGFP+ cells in the dose-response curve): B2-17 cells, 72 h treatment; for pEC50: dose-response of EGFP+ cells, read-out: EC50 (relative half maximal effect concentration); for activity of derepressing the EGFP reporter gene silenced by DNA methylation (in words): compared with hit compound LX-3.
Description: as §1
Procedure for cell culture and establishment of the reporter cell line were reported in our previously published paper (Li et al., [2018]).
Before plating cells, 384-well plates (ViewPlate, PerkinElmer) were coated with PDL (poly-D-lysine, Sigma). For each well, 1,300 B2-17 cells were plated by using a Matrix Wellmate microplate dispenser (Thermo Scientific). Then, 0.25 μL of compound was added to each well by using a versatile pipetting robot, the Biomek FX workstation (Beckman Coulter), to give a final compound concentration of 5 μM. After treatment for 72 h, the cell nuclei were stained by Hoechst 33342 (Sigma) before imaging.
The cells were imaged with Opera LX (PerkinElmer, three views per well by using 10 x (air) objective lens). Images were analyzed with the Columbus system, the mean percentage of EGFP+ cells (RGFP) was obtained to extrapolate the number of EGFP expressing cells and Hoechst-stained nuclei.
For the titration assay, the positive compounds were diluted in DMSO at concentrations ranging from 0.625 to 4 mM. Then, the B2-17 cells were treated by gradient compound and imaged as described before.
For each compound, a dose-response series was generated by using Origin 6.0 Pro software. The dot plot was fit by a DoseResp curve and then the EC50 was calculated.

The next data set has as its system p38 MAPK pathway. Further details: method as in Li et al., 2018. The settings on record: multiple cell types; ref Li et al., 2018; cited from earlier work.

pEC50, pIC50: −log10 of the molar value. Where two headings read alike, the source gives them in different places. A value given as a limit tells only on which side of the number the result lay.

For the compound `Cc1cc2c(cc1C)n1nc(-c3nccs3)nc1n2CC(=O)c1ccc(Br)cc1` [14b, 1-(4-bromophenyl)-2-(6,7-dimethyl-2-(thiazol-2-yl)-4H-benzo[4,5]imidazo[1,2-b][1,2,4]triazol-4-yl)ethan-1-one], the pIC50 with HEK 293 F cells (HEK293F, 72 h) is 5.68. For the same compound, the “water solubility (in words)” value in data set [1] was “significantly increased”. In data set [2], the Emax was 58%, the pEC50 is 5.47 and the “activity of derepressing the EGFP reporter gene silenced by DNA methylation (in words)” value (“activity” for short) is “comparable with the hit compound LX-3”.

On to `O=C(Cn1c2ccccc2c(=O)c2ccccc21)N/N=C/c1ccc(Sc2nc3ccccc3s2)c([N+](=O)[O-])c1` [LX-4], for which the pIC50 with HEK 293 F cells (HEK293F, 72 h) was 5.38. In data set [2], the Emax turned out to be 68% and the pEC50 was 5.70. Further, the “activation of the p38 MAPK pathway” value with p38 MAPK pathway is on record as “selectively activate the p38 MAPK pathway”.

Consider `Cc1n[nH]c(Nc2ccc(/N=N/c3ccccc3)cc2)c1[N+](=O)[O-]` [LX-5], for which the pIC50 in the data set with HEK 293 F cells (HEK293F, 72 h) is 5.38. In addition, in data set [2], the Emax was found to be 89% and the pEC50 is 5.39. The “activation of the p38 MAPK pathway” value with p38 MAPK pathway is “selectively activate the p38 MAPK pathway”.

With `Nc1ccc(C(=O)Cn2c3ccccc3n3nc(-c4cccs4)nc23)cc1` [7i, 1-(4-aminophenyl)-2-(2-(thiophen-2-yl)-4H-benzo[4,5]imidazo[1,2-b][1,2,4]triazol-4-yl)ethan-1-one], in the data set on HEK 293 F cells (HEK293F, 72 h), the pIC50 is 5.28. Also, in data set [2], the Emax stood at 19% and the “activity” value is “decreased to some extent”.

For `O=C(Cn1c2ccccc2n2nc(-c3nccs3)nc12)c1ccc(Br)cc1` [22c, 1-(4-bromophenyl)-2-(2-(thiazol-2-yl)-4H-benzo[4,5]imidazo[1,2-b][1,2,4]triazol-4-yl)ethan-1-one], in the data set on HEK 293 F cells (HEK293F, 72 h), the pIC50 is 5.28. In addition, in data set [2], the Emax worked out at 48% and the pEC50 is 5.35.

For the compound `CCc1ccc(CNc2ccc(CNc3ncn[nH]3)cc2)cc1` [LX-2], the pIC50 in the data set on HEK 293 F cells (HEK293F, 72 h) is 5.11. Moreover, in data set [2], the Emax worked out at 67% and the pEC50 is 5.66.

As for `C=CCc1cc(/C=N/Nc2ccc(Br)cc2)cc(OCC)c1OC` [LX-1], the pIC50 with HEK 293 F cells (HEK293F, 72 h) is 5.07. Besides, in data set [2], the Emax was found to be 72% and the pEC50 was 5.72.

In the case of `O=C(Cn1c2ccccc2n2nc(-c3cccs3)nc12)c1nccs1` [9a, 1-(thiazol-2-yl)-2-(2-(thiophen-2-yl)-4H-benzo[4,5]imidazo[1,2-b][1,2,4]triazol-4-yl)ethan-1-one], the pIC50 with HEK 293 F cells (HEK293F, 72 h) is 5.06. In data set [2], the Emax was determined as 30% and the pEC50 was 5.33.

For `O=C(Cn1c2ccccc2n2nc(Cc3ccccc3)nc12)c1ccc(Br)cc1` [22f, 2-(2-benzyl-4H-benzo[4,5]imidazo[1,2-b][1,2,4]triazol-4-yl)-1-(4-bromophenyl)ethan-1-one], the pIC50 in the data set with HEK 293 F cells (HEK293F, 72 h) is 5.33. In data set [2], the Emax is less than 22% and the pEC50 was 5.19.

For `O=C(Cn1c2ccccc2n2nc(-c3ccccc3)nc12)c1ccc(Br)cc1` [22a, 1-(4-bromophenyl)-2-(2-phenyl-4H-benzo[4,5]imidazo[1,2-b][1,2,4]triazol-4-yl)ethan-1-one], the pIC50 in the data set on HEK 293 F cells (HEK293F, 72 h) was 5.36. Further, in data set [2], the Emax is 6% and the “activity” value is “decreased significantly or even disappeared”.

For the compound `COc1ccc(NC(=O)c2ccco2)cc1NC(=O)c1ccc(-c2cccc([N+](=O)[O-])c2)o1` [LX-7], the pIC50 in the data set with HEK 293 F cells (HEK293F, 72 h) is 5.49. Further, in data set [2], the Emax turned out to be 79% and the pEC50 was 5.72.

For `O=C(Cn1c2ccccc2n2nc(-c3cccs3)nc12)c1ccncc1` [9d, 1-(pyridin-4-yl)-2-(2-(thiophen-2-yl)-4H-benzo[4,5]imidazo[1,2-b][1,2,4]triazol-4-yl)ethan-1-one], in the data set with HEK 293 F cells (HEK293F, 72 h), the pIC50 is 5.19. Moreover, in data set [2], the Emax is 35% and the pEC50 is 4.87.

Turning to `O=C(Cn1c2ccccc2n2nc(-c3ccccn3)nc12)c1ccc(Br)cc1` [22e, 1-(4-bromophenyl)-2-(2-(pyridin-2-yl)-4H-benzo[4,5]imidazo[1,2-b][1,2,4]triazol-4-yl)ethan-1-one], in the data set on HEK 293 F cells (HEK293F, 72 h), the pIC50 is 5.55. The Emax in data set [2] came out at 6%.

In the case of “2-(4-bromophenyl)-1-(2-(thiazol-2-yl)-4H-benzo[4,5] imidazo[1,2-b][1,2,4]triazol-4-yl)ethan-1-one [31b]”, in the data set with HEK 293 F cells, the pIC50 is 4.94. In addition, in data set [2], the “Maximal RGFP% (maximal percentage of EGFP+ cells in the dose-response curve)” value is reported as 6.0% and the “activity” value is given as “loss of activity”.

Take `O=C(Cn1c2ccccc2n2nc(-c3cccs3)nc12)c1ccc(Br)cc1` [LX-3, 1-(4-bromophenyl)-2-(2-(thiophen-2-yl)-4H-benzo[4,5]imidazo[1,2-b][1,2,4]triazol-4-yl)ethan-1-one]: the pIC50 with HEK 293 F cells (HEK293F, 72 h) is 5.29. In addition, in data set [2], the Emax was 79% and the pEC50 is 5.55. Further, the “activation of the p38 MAPK pathway” value in the data set with p38 MAPK pathway was “selectively activate the p38 MAPK pathway”.

Turning to `Cc1cc(NC(=O)CSc2nc3ccc(Br)cc3c3nc4ccccc4n23)no1` [LX-6], the pIC50 with HEK 293 F cells (HEK293F, 72 h) is 5.30. In data set [2], the Emax worked out at 71% and the pEC50 is 5.38.

Consider `O=C(Cn1c2ccccc2n2nc(-c3ccc(Cl)s3)nc12)c1ccc(Br)cc1` [compound 29, 1-(4-bromophenyl)-2-(2-(5-chlorothiophen-2-yl)-4H-benzo[4,5]imidazo[1,2-b][1,2,4]triazol-4-yl)ethan-1-one], for which the pIC50 with HEK 293 F cells (HEK293F, 72 h) is 4.87. In data set [2], the Emax came to 83%, the pEC50 was 5.05 and the “activity” value is recorded as “little reduction of potency”.

In the case of “3-(4-bromophenyl)-1-(2-(thiazol-2-yl)-4H-benzo[4,5] imidazo[1,2-b][1,2,4]triazol-4-yl)propan-1-one [31c]”, the pIC50 in the data set with HEK 293 F cells was 4.80. Further, in data set [2], the “Maximal RGFP% (maximal percentage of EGFP+ cells in the dose-response curve)” value is given as 9.0% and the “activity” value is reported as “loss of activity”.

For the compound `O=C(Cn1c2ccccc2n2nc(-c3cccs3)nc12)c1c(F)c(F)c(F)c(F)c1F` [7g, 1-(perfluorophenyl)-2-(2-(thiophen-2-yl)-4H-benzo[4,5]imidazo[1,2-b][1,2,4]triazol-4-yl)ethan-1-one], the pIC50 in the data set on HEK 293 F cells (HEK293F, 72 h) was 5.96. Further, in data set [2], the Emax was determined as 10% and the “activity” value is on record as “significantly decreased”.

Regarding `O=C(Cn1c2ccccc2n2nc(-c3cccs3)nc12)c1ccc([N+](=O)[O-])cc1` [7c, 1-(4-nitrophenyl)-2-(2-(thiophen-2-yl)-4H-benzo[4,5]imidazo[1,2-b][1,2,4]triazol-4-yl)ethan-1-one], the pIC50 in the data set on HEK 293 F cells (HEK293F, 72 h) is 4.92. In data set [2], the Emax was determined as 41%, the pEC50 is 4.83 and the “activity” value was “decreased to some extent”.
